Experimental data published in US12280051B2, “Pharmaceutical composition for topical wound treatment” (CONSEJO NACIONAL DE INVESTIGACIONES CIENTIFICAS Y TECNICAS, priority 2021, dated 2025).

Key:
VEGF [1] = assay: VEGF expression in keratinocytes HaCaT (real-time PCR); type: cell-based, human; conditions: Ethosuximide 3.0 mg/mL, 24 hours, FIG. 19
Procedure: (§1) Cell lines were grown and maintained following the protocols of the American Type Culture Collection (ATCC, Rockville, MD, USA), using Minimum Essential Medium (MEM), Fetal Bovine Serum (FBS), L-glutamine.
(§2) To evaluate the expression of the VEGF genes, the following cell lines were used: • a. Murine macrophage cell line J774 (ATCC), stimulated with 25 ng/mL of lipopolysaccharides (LPS) from E. coli (L-8274, Sigma). • b. Adult human skin keratinocytes cell line HaCaT(ATCC).
(§3) Cells were plated for 24 hours with Ethosuximide at different concentrations to evaluate their effect on gene expression.
(§4) Monolayers of the J774 Macrophage cell lines and HaCaT Keratinocytes were used, until confluent cells were obtained, which were stimulated with Ethosuximide at 0.5 and 3.0 mg/mL as indicated in example 1, in 12-well plates, at a final volume of 300 μL/well. For the J774 macrophage line, all treatments were supplemented with LPS (25 ng/mL), using MEM 1× with LPS (25 ng/mL) as control (Control+LPS). HaCaT keratinocytes were treated with the concentrations of ethosuximide in MEM with 10% FBS, using 1× MEM as a control. […]
(§5) Levels of VEGF and GAPDH mRNA were measured in triplicate for each sample using the StepOnePlus Real-Time PCR Systems (Applied Biosystems) and the Power Up SYBR Green Master Mix (ROCHE) kit. […] Group means were determined and normalized to the MEM group for each experiment.

VEGF [2] = assay: VEGF expression in macrophages J774 (real-time PCR); type: cell-based, Murine; conditions: Macrophages J774 + LPS 25 ng/mL; Ethosuximide 0.5 mg/mL; 24 hours; FIG. 19
Procedure: as §1, §2, §3, §4, §5

[3] = system: chicken chorioallantoic membrane; assay: Chicken Chorioallantoic Membrane Assay (CAM), angiogenesis; type: in vivo; conditions: 300 μl onto the chorioallantoic membrane; 24 and 48 hours; ethosuximide solutions 0.5 and 3.0 mg/mL; FIG. 18
Description: Angiogenesis is a complex biological process involving the generation of new blood vessels from the pre-existing vasculature. The process involves the cooperation of several different cell types, and in particular involves proliferation, survival, and tissue invasion by activated endothelial cells. Most investigations of angiogenesis include at least one in vivo study. The Chicken Chorioallantoic Membrane Assay (CAM) is suitable for a variety of applications. In this assay, the angiogenic properties of different concentrations of ethosuximide and lactic acid and the mixtures were tested.
Eggs commercial lines with a weight between 30-90 g were used. By using an ovoscope the viability of the chorioallantoic membrane was determined to select only fertilized and viable eggs. […]
Then, 300 μl of the following solutions were slowly placed onto the chorioallantoic membrane: Ethosuximide 3.0 mg/mL; Ethosuximide 0.5 mg/mL; M0; M13; M15; LAPS; Negative control (PBS). Each solution was evaluated by triplicade. […]
Angiogenesis tests: Digital images analysis was made by using the software Image J plus. The length of vascularization (cm) per CAM area (cm^2) was evaluated before solution addition (basal) and after 24 and 48 hours. Then, the percentage of increase of vascularization was calculated.

[4] = system: Pseudomonas aeruginosa. MTCC741; conditions: cited from earlier work
[5] = system: Staphylococcus aureus MTCC 96; conditions: cited from earlier work
[6] = Chelating capacity: remaining Calcium (unchelated); type: physicochemical; conditions: pH 7.0
Procedure: The following solutions were prepared in Mixing solvent (MS) at pH 7.0. All solutions were supplemented with ZnCl2 (1 ppm), CaCl2 (100 ppm) and MgCl2 (25 ppm). The concentrations of Zn, Ca and Mg used here, were close to those typically found in exudates from chronic wounds. The pH chosen for the reaction (7.0) would result from the combination of compositions of present invention (pH 5.5) and the exudate from a chronic wound (pH 8.5). Prepared solutions were: EDTA (0.25, 0.50 and 0.75 mg/mL) as indicated in example 1; M0, M13, […] were elaborated according to examples 18 to 21. and LAPS deproteinized: Over a LAPS 24 h sample obtained according to example 1, a deproteinization process was performed using reagents and indications of the commercial kit employed. Measurement of remaining Calcium (unchelated) in the prepared solutions: A commercial Calcium measurement kit (Wiener Lab) was used. This is a colorimetric method based on the reaction of calcium with o-cresolphthalein complexone (o-CPC) at alkaline pH, giving a photocolorimetrically measurable magenta complex at 570 nm.

[7] = Chelating capacity: remaining Zinc (unchelated); type: physicochemical; conditions: pH 7.0; EDTA at all concentrations tested; combination of Zinc, Calcium and Magnesium
Procedure: The following solutions were prepared in Mixing solvent (MS) at pH 7.0. All solutions were supplemented with ZnCl2 (1 ppm), CaCl2 (100 ppm) and MgCl2 (25 ppm). The concentrations of Zn, Ca and Mg used here, were close to those typically found in exudates from chronic wounds. The pH chosen for the reaction (7.0) would result from the combination of compositions of present invention (pH 5.5) and the exudate from a chronic wound (pH 8.5). Prepared solutions were: EDTA (0.25, 0.50 and 0.75 mg/mL) as indicated in example 1; M0, M13, […] were elaborated according to examples 18 to 21. and LAPS deproteinized: Over a LAPS 24 h sample obtained according to example 1, a deproteinization process was performed using reagents and indications of the commercial kit employed. Measurement of remaining Zinc (unchelated) in the prepared solutions: A commercial Zinc measurement kit (Randox Lab) was used. This is a colorimetric method based on the reaction of Zinc with Dimethylglyoxime and Salicylaldoxin at alkaline pH, giving a colored complex photocolorimetrically measurable at 560 nm. For the determination of Zinc in LAPS, a previous deproteinization step was necessary. Therefore, equal parts of LAPS and deproteinizing reagent (Trichloroacetic Acid 370 mmol/L) were mixed in conical tubes, homogenized and centrifuged for 10 min at 10,000×g. The supernatant was used for the test.

[8] = system: Intercellular adhesion molecule-1 (ICAM-1); conditions: cited from earlier work
highly polymerized DNA = assay: DNAse activity halos in DNAse agar and conservation in time; type: biochemical; conditions: DNAse 0.97 μg/mL alone (C2); DNAse agar, 24 hours at 32° C.
Description: DNAse agar is a culture medium that contains highly polymerized DNA and agar as solidifying agents. The DNA is the substratum of the deoxyribonuclease enzyme (DNAse) which hydrolyzes it. This medium allows to detect DNAse activity in different samples and microorganisms. The presence of the enzyme could be visualized adding hydrochloric acid 1N. The hydrolyzed deoxyribonucleic acid presents transparency while the polymerized deoxyribonucleic acid precipitates generating resulting in a opacity on the culture media
Plates preparation: DNAse agar plates were prepared according to manufacturer recommendations (Britania, CABA, Argentina). A volume of 20 mL of the molten media was employed reaching an agar height of 2 mm in the plates. Wells of 5 mm o diameter were made over the agar using a sterile punch. Therefore, the sown volume in each well was π×r^2×h=π×(2.5 mm)^2×2 mm=40 mm=40 μL. […]
Analyzed samples: LAPS, M0, M13, M15, M16 (All gelled with hydroxyethyl cellulose) stored at 25° C. and 4° C. DNAse activity was measured once a week for 6 months. […]
Then, the plates were rested and were observed up to no more than 5 minutes after adding the HCl. DNase activity was measured analyzing the transparent evanescence around the planting zone recording in millimeters the halos diameter.

CCC1(C)CC(=O)NC1=O (stereo not shown) [Ethosuximide, ethosuximide]
VEGF expression level normalized to GAPDH (VEGF [1]): induced
VEGF expression level normalized to GAPDH (VEGF [2]): induced
percentage of increase of vascularization (angiogenic effect) [3]: showed angiogenic properties although it was better at 0.5 mg/mL than 3.0 mg/mL

XYLENTRA®: synthetically engineered antimicrobial peptide of U.S. Pat. No. 10,285,938 B2
antibacterial activity [4]: significant antibacterial activity
antibacterial activity [5]: significant antibacterial activity

O=C(O)CN(CCN(CC(=O)O)CC(=O)O)CC(=O)O [EDTA, ethylenediaminetetraacetic acid]
Calcium chelation percentage ([6]; EDTA 0.25 mg/mL): not able to chelate all the available calcium
Calcium chelation percentage ([6]; EDTA at 0.50, 0.75 and 1.00 mg/mL, combination of zinc, calcium and magnesium): completely
Zinc chelation percentage [7]: completely chelate

CC(=O)N[C@@H](CS)C(=O)O [NAC, N-acetyl cysteine]
ICAM-1 expression [8]: concentration dependent inhibition

B1: DNAse: rh-Dornase alfa (recombinant human DNase, Roche) diluted in mixing solvent; C2 0.97 μg/mL, C4 3.90 μg/mL (protein, UniProt P24855 23-282, looked up)
Deoxyribonuclease-1: LKIAAFNIQTFGETKMSNATLVSYIVQILSRYDIALVQEVRDSHLTAVGKLLDNLNQDAPDTYHYVVSEPLGRNSYKERYLFVYRPDQVSAVDSYYYDDGCEPCGNDTFNREPAIVRFFSRFTEVREFAIVPLHAAPGDAVAEIDALYDVYLDVQEKWGLEDVMLMGDFNAGCSYVRPSQWSSIRLWTSPTFQWLIPDSADTTATPTHCAYDRIVVAGMLLRGAVVPDSALPFNFQAAYGLSDQLAQAISDHYPVEVMLK
halos of DNAse activity (highly polymerized DNA): 8-10 mm
